In PubChem BioAssay AID1845195 (Molecular Pharmacology Branch, DTP, NCI, 2023):

Tested on: 156681-154-R-J1 tumor spheroid viability
Assay: Anticancer human tumor 156681-154-R-J1 patient-derived melanoma cell line growth inhibition
Settings: spheroids with HUVEC and MSC; for IC50: curve of first compound; for viability, T/C: stronger effect = lower value
Summary of the method: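 Single agents and combinations were tested on spheroids built from tumor cells plus HUVEC and hMSC, at half-log dilutions starting at or near clinical Cmax, else 10 microM; final DMSO 0.25% (v/v).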

[1] = second compound 0.003 µM, first compound 0.0316 µM
[2] = second compound 0.003 µM, first compound 0.1 µM
[3] = second compound 0.003 µM, first compound 0.316 µM
[4] = second compound 0.003 µM, first compound 1 µM
[5] = second compound 0.003 µM, first compound 3.16 µM
[6] = second compound 0.003 µM, first compound 10 µM
[7] = second compound 0.00949 µM, first compound 0.0316 µM
[8] = second compound 0.00949 µM, first compound 0.1 µM
[9] = second compound 0.00949 µM, first compound 0.316 µM
[10] = second compound 0.00949 µM, first compound 1 µM
[11] = second compound 0.00949 µM, first compound 3.16 µM
[12] = second compound 0.00949 µM, first compound 10 µM
[13] = second compound 0.03 µM, first compound 0.0316 µM
[14] = second compound 0.03 µM, first compound 0.1 µM
[15] = second compound 0.03 µM, first compound 0.316 µM
[16] = second compound 0.03 µM, first compound 1 µM
[17] = second compound 0.03 µM, first compound 3.16 µM
[18] = second compound 0.03 µM, first compound 10 µM
[19] = second compound 0.0949 µM, first compound 0.0316 µM
[20] = second compound 0.0949 µM, first compound 0.1 µM
[21] = second compound 0.0949 µM, first compound 0.316 µM
[22] = second compound 0.0949 µM, first compound 1 µM
[23] = second compound 0.0949 µM, first compound 3.16 µM
[24] = second compound 0.0949 µM, first compound 10 µM
[25] = second compound 0.3 µM, first compound 0.0316 µM
[26] = second compound 0.3 µM, first compound 0.1 µM
[27] = second compound 0.3 µM, first compound 0.316 µM
[28] = second compound 0.3 µM, first compound 1 µM
[29] = second compound 0.3 µM, first compound 3.16 µM
[30] = second compound 0.3 µM, first compound 10 µM
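Also: spheroids exposed to compounds for 7 days before readout.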
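For viability, T/C in this document: percent of vehicle control viability where 100% = DMSO-treated spheroids.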

Question: Which IC50 (second compound 0.003 µM) does the source give for `CC(C)n1c(=O)n(C)c2cnc3cc(F)c(-c4ccc(OCCCN5CCCCC5)nc4)cc3c21` + CC[C@@]1(O)C(=O)OCc2c1cc1n(c2=O)Cc2cc3c(CN(C)C)c(O)ccc3nc2-1 here?
Answer: > 10000 nM

Question: And the IC50 (second compound 0.00949 µM)?
Answer: > 10000 nM

Question: What about the IC50 (second compound 0.03 µM) of the same molecule?
Answer: 55.1 nM

Question: And the IC50 (second compound 0.0949 µM)?
Answer: < 31.6 nM

Question: What about the IC50 (second compound 0.3 µM) of the same molecule?
Answer: < 31.6 nM

Question: And the viability, T/C [1]?
Answer: 83%

Question: What about the viability, T/C [2] of the same molecule?
Answer: 92.7%

Question: And the viability, T/C [3]?
Answer: 77.3%

Question: What about the viability, T/C [4] of the same molecule?
Answer: 78.8%

Question: What about the viability, T/C [5] of the same molecule?
Answer: 97.9%

Question: What about the viability, T/C [6] of the same molecule?
Answer: 85.5%

Question: What about the viability, T/C [7] of the same molecule?
Answer: 77.2%

Question: And the viability, T/C [8]?
Answer: 75%

Question: And the viability, T/C [9]?
Answer: 74.4%

Question: And the viability, T/C [10]?
Answer: 76.3%

Question: What about the viability, T/C [11] of the same molecule?
Answer: 80.8%

Question: What about the viability, T/C [12] of the same molecule?
Answer: 78.8%

Question: What about the viability, T/C [13] of the same molecule?
Answer: 57.8%

Question: And the viability, T/C [14]?
Answer: 44.7%

Question: And the viability, T/C [15]?
Answer: 30.3%

Question: What about the viability, T/C [16] of the same molecule?
Answer: 29.6%

Question: And the viability, T/C [17]?
Answer: 44.8%

Question: What about the viability, T/C [18] of the same molecule?
Answer: 31.7%

Question: What about the viability, T/C [19] of the same molecule?
Answer: 11.9%

Question: And the viability, T/C [20]?
Answer: 10.2%

Question: What about the viability, T/C [21] of the same molecule?
Answer: 10.8%

Question: What about the viability, T/C [22] of the same molecule?
Answer: 13.2%

Question: What about the viability, T/C [23] of the same molecule?
Answer: 11.8%

Question: And the viability, T/C [24]?
Answer: 13.6%

Question: And the viability, T/C [25]?
Answer: 10.2%

Question: What about the viability, T/C [26] of the same molecule?
Answer: 9.03%

Question: And the viability, T/C [27]?
Answer: 9.13%

Question: What about the viability, T/C [28] of the same molecule?
Answer: 9.94%

Question: What about the viability, T/C [29] of the same molecule?
Answer: 9.43%

Question: What about the viability, T/C [30] of the same molecule?
Answer: 15%

Question: Which results are given for `COc1ccc([C@@H](O)c2cc(-c3ncnc4cc(N5CCOCC5)ccc34)c(F)cc2Cl)nn1` + CC[C@@]1(O)C(=O)OCc2c1cc1n(c2=O)Cc2cc3c(CN(C)C)c(O)ccc3nc2-1?
Answer: IC50 (second compound 0.003 µM): 5780 nM; IC50 (second compound 0.00949 µM): 3580 nM; IC50 (second compound 0.03 µM): 616 nM; IC50 (second compound 0.0949 µM): < 31.6 nM; IC50 (second compound 0.3 µM): < 31.6 nM; viability, T/C [1]: 80.6%; viability, T/C [2]: 70.4%; viability, T/C [3]: 78.3%; viability, T/C [4]: 63.9%; viability, T/C [5]: 54.4%; viability, T/C [6]: 46.6%; viability, T/C [7]: 89.9%; viability, T/C [8]: 75.9%; viability, T/C [9]: 75%; viability, T/C [10]: 62.4%; viability, T/C [11]: 47.6%; viability, T/C [12]: 43.3%; viability, T/C [13]: 71.5%; viability, T/C [14]: 57.8%; viability, T/C [15]: 53.9%; viability, T/C [16]: 49.5%; viability, T/C [17]: 41.8%; viability, T/C [18]: 35.3%; viability, T/C [19]: 24.1%; viability, T/C [20]: 30.7%; viability, T/C [21]: 30.3%; viability, T/C [22]: 34%; viability, T/C [23]: 36.3%; viability, T/C [24]: 28.4%; viability, T/C [25]: 32.9%; viability, T/C [26]: 36.8%; viability, T/C [27]: 35.6%; viability, T/C [28]: 42.1%; viability, T/C [29]: 25.9%; viability, T/C [30]: 8.42%

Question: Which IC50 (second compound 30 pM) does the source give for `O=C(c1cc(Cc2n[nH]c(=O)c3ccccc23)ccc1F)N1CCN(C(=O)C2CC2)CC1` + COc1cc2c(cc1O)CCNC21CSC2c3c(OC(C)=O)c(C)c4c(c3C(COC1=O)N1C(O)C3Cc5cc(C)c(OC)c(O)c5C(C21)N3C)OCO4 here?
Answer: > 30000 nM

Question: What about the IC50 (second compound 94.9 pM) of the same molecule?
Answer: > 30000 nM

Question: What about the IC50 (second compound 0.0003 µM) of the same molecule?
Answer: 5840 nM

Question: What about the IC50 (second compound 0.000949 µM) of the same molecule?
Answer: < 94.9 nM

Question: And the IC50 (second compound 0.003 µM)?
Answer: < 94.9 nM

Question: And the viability, T/C (second compound 30 pM, first compound 0.0949 µM)?
Answer: 83.5%

Question: What about the viability, T/C (second compound 30 pM, first compound 0.3 µM) of the same molecule?
Answer: 77%

Question: What about the viability, T/C (second compound 30 pM, first compound 0.949 µM) of the same molecule?
Answer: 73.4%

Question: And the viability, T/C (second compound 30 pM, first compound 3 µM)?
Answer: 72.2%

Question: What about the viability, T/C (second compound 30 pM, first compound 9.49 µM) of the same molecule?
Answer: 65.3%

Question: What about the viability, T/C (second compound 30 pM, first compound 30 µM) of the same molecule?
Answer: 60.1%

Question: And the viability, T/C (second compound 94.9 pM, first compound 0.0949 µM)?
Answer: 82.1%

Question: And the viability, T/C (second compound 94.9 pM, first compound 0.3 µM)?
Answer: 85.9%

Question: And the viability, T/C (second compound 94.9 pM, first compound 0.949 µM)?
Answer: 82.7%

Question: And the viability, T/C (second compound 94.9 pM, first compound 3 µM)?
Answer: 66.3%

Question: And the viability, T/C (second compound 94.9 pM, first compound 9.49 µM)?
Answer: 69%

Question: What about the viability, T/C (second compound 94.9 pM, first compound 30 µM) of the same molecule?
Answer: 53.5%

Question: What about the viability, T/C (second compound 0.0003 µM, first compound 0.0949 µM) of the same molecule?
Answer: 69.8%

Question: What about the viability, T/C (second compound 0.0003 µM, first compound 0.3 µM) of the same molecule?
Answer: 68.6%

Question: And the viability, T/C (second compound 0.0003 µM, first compound 0.949 µM)?
Answer: 64.1%

Question: And the viability, T/C (second compound 0.0003 µM, first compound 3 µM)?
Answer: 66.8%

Question: What about the viability, T/C (second compound 0.0003 µM, first compound 9.49 µM) of the same molecule?
Answer: 37.8%

Question: And the viability, T/C (second compound 0.0003 µM, first compound 30 µM)?
Answer: 21.2%

Question: And the viability, T/C (second compound 0.000949 µM, first compound 0.0949 µM)?
Answer: 4.61%

Question: And the viability, T/C (second compound 0.000949 µM, first compound 0.3 µM)?
Answer: 4.05%

Question: And the viability, T/C (second compound 0.000949 µM, first compound 0.949 µM)?
Answer: 3.32%

Question: And the viability, T/C (second compound 0.000949 µM, first compound 3 µM)?
Answer: 4.15%

Question: What about the viability, T/C (second compound 0.000949 µM, first compound 9.49 µM) of the same molecule?
Answer: 0.45%

Question: And the viability, T/C (second compound 0.000949 µM, first compound 30 µM)?
Answer: 0.13%

Question: And the viability, T/C (second compound 0.003 µM, first compound 0.0949 µM)?
Answer: 0.12%

Question: And the viability, T/C (second compound 0.003 µM, first compound 0.3 µM)?
Answer: 0.12%

Question: What about the viability, T/C (second compound 0.003 µM, first compound 0.949 µM) of the same molecule?
Answer: 0.1%

Question: What about the viability, T/C (second compound 0.003 µM, first compound 3 µM) of the same molecule?
Answer: 0.11%

Question: And the viability, T/C (second compound 0.003 µM, first compound 9.49 µM)?
Answer: 0.11%

Question: And the viability, T/C (second compound 0.003 µM, first compound 30 µM)?
Answer: 0.17%
